From BigSolDB 2.1

CC(=O)Oc1ccc(C(c2ccc(OC(C)=O)cc2)c2ccccn2)cc1
solubility (mole fraction)
Conditions | 288.15 K | 293.15 K | 298.15 K | 303.15 K | 308.15 K
in DMAc | 0.0391 | 0.0448 | 0.0512 | 0.0583 | 0.0659
in DMF | 0.0372 | 0.0429 | 0.0492 | 0.0561 | 0.0638
in NMP | 0.0643 | 0.0703 | 0.0768 | 0.0837 | 0.0909
in THF | 0.0192 | 0.0237 | 0.0291 | 0.0355 | 0.0431
in acetone | 0.0124 | 0.0154 | 0.0189 | 0.0231 | 0.0281
in acetonitrile | 0.0112 | 0.0135 | 0.0162 | 0.0193 | 0.0229
in ethanol | 0.000471 | 0.000639 | 0.000852 | 0.00113 | 0.00149
in isopropanol | 0.000238 | 0.000327 | 0.000443 | 0.000599 | 0.000804
in methanol | 0.000961 | 0.00123 | 0.00155 | 0.00196 | 0.00245
in n-butanol | 0.000393 | 0.000537 | 0.000719 | 0.000968 | 0.00128
in n-propanol | 0.000462 | 0.000608 | 0.000788 | 0.00102 | 0.00131
in transcutol | 0.00761 | 0.0092 | 0.011 | 0.0131 | 0.0156
in water | 1.32e-07 | 1.56e-07 | 1.83e-07 | 2.14e-07 | 2.49e-07

Conditions | solubility (mole fraction)
in PEG-400, 288.15 K | 0.0132
in PEG-400, 293.15 K | 0.0154
in PEG-400, 298.15 K | 0.0179
in PEG-400, 303.15 K | 0.0206
in PEG-400, 308.15 K | 0.0237
